Assay results as given in publication PMC8395767, “Worsening of the Toxic Effects of (±)Cis-4,4′-DMAR Following Its Co-Administration with (±)Trans-4,4′-DMAR: Neuro-Behavioural, Physiological, Immunohistochemical and Metabolic Studies in Mice” (International Journal of Molecular Sciences, 2021).
“And” between values parts separate entries of the source, which are not always exact repeats. Equal values may be shown once. Marks after values point to notes of the source that are not given here.

Key:
mice = assay: Core temperature (rectal probe), hyperthermia; format: in vivo
Method: The effects of (±)cis-4,4′-DMAR, (±)trans-4,4′-DMAR and their co-administration were investigated by a protocol widely used in studies of “safety pharmacology” for the preclinical characterization of new molecules in rodents. This protocol includes a series of observational behavioural tests carried out in a consecutive manner that monitor the animal responses up to 5 h after compound injections. In the present study, we reported the observation of physiological (sweating, salivation, core temperature) and neuro-behavioural (detection of psychomotor agitation, spontaneous and stimulated aggressiveness, convulsions) changes occurring in mice after injection of (±)cis-4,4′-DMAR, (±)trans-4,4′-DMAR and their co-administration. Before pharmacological treatment the mouse was placed on a square plate (30 cm× 30 cm) raised from the ground (20 cm) and left free to move on the plate for 10 min (habituation period). The animal was then injected with the vehicle, substances alone ((±)cis-4,4′-DMAR or (±)trans-4,4′-DMAR) or in cis + trans co-administration and placed on the plate. From this moment, the recording time of the physiological and neuro-behavioural responses started, and these were detected in 5-min sessions.
After the first 5 min, the animal was removed from the plate; the body core temperature was then measured, and the aggression tests were performed. The 5-min observation period was repeated at 15–30–60–90–120–180–240–300. Psychomotor agitation in the mouse was not simply related to an increase in spontaneous locomotion itself, but by an “unusual hyperactivity” which was characterised by rapid and sudden horizontal displacements in all directions, sustained turning behaviour, involuntary falls from the high plate during the evaluation of the tests, stereotyped movements and rearing activity. Mouse sweating and salivation were reported only if present or not. The core temperature was determined using a probe (1 mm diameter) that was gently inserted after lubrication with liquid Vaseline into the rectum of the mouse (to about 2 cm) and left in position until the temperature stabilised (about 10 s). The probe was connected to a digital thermometer. Spontaneous aggressive response was measured based on the number of times a mouse bit a grey cloth put in front of its snout. During the test, each mouse was free to move within the cage. In the case of stimulated aggressiveness, each mouse was manually restrained and held in a supine position following which an object was brought near the mouth. For both spontaneous and stimulated aggressive behaviour tests, a grey cloth was placed in front of the nose of each mouse 10 consecutive times (score 0/10 not aggressive, score 10/10 very aggressive). Convulsions were defined as a loss of righting reflexes for at least 5 s, combined with the presence of body tremors and clonic or tonic limb movements. Deaths caused by 4-4’-DMAR injection occurring during the observation period (5 h) were also reported as frequency (%) and time of death (min). Experiments were conducted inside the LARP (Centralised Preclinical Research Laboratory, University of Ferrara, Ferrara, Italy) in a thermo-stated (temperature 20–22 °C, humidity about 45–55%) and light controlled (about 150 lux) room, in which there was a background noise of about 40 ± 4 dB. The experiments, conducted in blind by trained observers working together in pairs, were videotaped and eventually analysed off-line by a different trained operator. The experiments were performed between 8:30 a.m. and 2:00 p.m.
(§1) Sweating and salivation were expressed as frequency (e.g., % of animals that developed symptoms); psychomotor agitation was expressed as frequency (% of animals) and duration (total time in mins). Core temperature values were expressed as the difference between control temperature (before injection) and temperature following drug administration (Δ°C). […]

HSP27 = assay: Immunohistochemistry, frontal cortex: HSP27; format: in vivo, mice
Text: (§2) Following the acute death or the sacrifice of the animals (after 5-h observation period by dislocation of the spine), brains were taken. These were fixed in 4% buffered formalin and then sampled and incorporated into the paraffin (Leica ASP300 processor, Histoline TEC2900 incorporator; Leica Microsystems Srl, Buccinasco, Milano, Italy). Subsequently, the cut (performed with the Leica HistoCore autocut microtome; Leica Microsystems Srl, Buccinasco, Milano, Italy) was designed to create sections with a thickness of 5 µm for each sample.
(§3) On 5-µm-thick paraffined […] sections, we evaluated the expression of a panel of markers: heat shock proteins (HSP27, HSP70, HSP90), SMAC/DIABLO, NF-kB, iNOS, NOX-2, NT, 8-OHDG.
(§4) We used a detection system composed of a biotinylated secondary antibody and HRP-conjugated streptavidin (4plus HRP Universal Detection, Biocare Medical). 3′-,3Diaminobenzidine (DAB) and H2O2 (Betazoid DAB Chromogen Kit, Biocare Medical, Concord, CA, USA) were used as chromogen/substrate. The subsequent counterstaining with haematoxylin–eosin allowed the visualization of cell morphology and nuclei. Once this procedure was completed, the slides were mounted and observed under optical microscope. In the pictures (sections of the frontal cortex; Figure 3, Figure 4 and Figure 5) to evaluate the variation in the expression of markers (Smac, NOX2, iNOS, 8-OHdG, NT, HSP27, HSP70, HSP90) following treatments, the change in intensity of brown colour (staining of the immunohistochemical technique) in the control and treated tissue was measured. Quantification of Smac, NOX2, iNOS, 8-OHdG, NT, HSP27, HSP70 and HSP90 positive-stained areas was performed by the ImageJ software (imagej.nih.gov/ij/ Accessed date 12 May 2020). […] Positivity was expressed as an extension of the stained analysed area.
Sweating and salivation were expressed as frequency (e.g., % of animals that developed symptoms); psychomotor agitation was expressed as frequency (% of animals) and duration (total time in mins). Core temperature values were expressed as the difference between control temperature (before injection) and temperature following drug administration (Δ°C). Aggressiveness was expressed as frequency (% of animals which become aggressive) and score (number of bites). Convulsions were expressed as frequency (% of animals that developed seizure), episodes (e.g., number of seizure events), latency of first episode (sec.) and duration of each episode (sec.). Lethality was expressed as frequency (% of animals that died during the observation period (5 h) or during the following 24 h). […] Regarding immunohistochemical analysis, positivity was expressed as the extension of stained analysed area. Results were expressed as means ± mean standard error (SEM). […]

HSP70 = assay: Immunohistochemistry, frontal cortex: HSP70; format: in vivo, mice
Text: as §2, §3
as §4, with “The subsequent counterstaining with haematoxylin–eosin allowed the visualization of cell morphology and nuclei. Once this procedure was completed, the slides were mounted and observed under optical microscope.” left out
as §1, with “(Δ°C). Aggressiveness was expressed as frequency (% of animals which become aggressive) and score (number of bites).” for “(Δ°C).”

HSP90 = assay: Immunohistochemistry, frontal cortex: HSP90; format: in vivo, mice; conditions: vs control
Text: as §2, §3
We used a detection system composed of a biotinylated secondary antibody and HRP-conjugated streptavidin (4plus HRP Universal Detection, Biocare Medical). […] In the pictures (sections of the frontal cortex; Figure 3, Figure 4 and Figure 5) to evaluate the variation in the expression of markers (Smac, NOX2, iNOS, 8-OHdG, NT, HSP27, HSP70, HSP90) following treatments, the change in intensity of brown colour (staining of the immunohistochemical technique) in the control and treated tissue was measured. Quantification of Smac, NOX2, iNOS, 8-OHdG, NT, HSP27, HSP70 and HSP90 positive-stained areas was performed by the ImageJ software (imagej.nih.gov/ij/ Accessed date 12 May 2020). […]

[1] = 10 mg/kg i.p., n=4 mice (animals of the urine excretion study)

Question: What does the source list for Cc1ccc(C2OC(N)=NC2C)cc1 (stereo not drawn) [cis-4,4’-DMAR, 4-methyl-5-(4-methylphenyl)-4,5-dihydrooxazol-2-amine]?
Answer: Hyperthermia Variation (Δ°C) (mice; 0.1 mg/kg i.p., n=6 mice): −0.18 ± 0.14 Δ°C; Hyperthermia Variation (Δ°C) (mice; 1 mg/kg i.p., n=6 mice): −0.22 ± 0.17 Δ°C; Hyperthermia Variation (Δ°C) (mice; 3 mg/kg i.p., n=6 mice): −0.34 ± 0.22 Δ°C; Hyperthermia Variation (Δ°C) (mice; [1]): −0.21 ± 0.15 Δ°C; Hyperthermia Variation (Δ°C) (mice; 10 mg/kg i.p., n=6 mice): −0.41 ± 0.13 Δ°C; Hyperthermia Latency (mice; 30 mg/kg i.p., n=6 mice): 25 ± 0.25 min; Hyperthermia Variation (Δ°C) (mice; 30 mg/kg i.p., n=6 mice): 1.52 ± 0.11 ^c Δ°C; Hyperthermia Variation (Δ°C) (mice; 30 mg/kg i.p., n=6 mice, listed as (±)cis-4,4′-DMAR): 1.52 ± 0.11 Δ°C; Hyperthermia Latency (mice; 60 mg/kg i.p., n=6 mice): 7.12 ± 0.23 min; Hyperthermia Latency (min) (mice; 60 mg/kg i.p., n=6 mice): 7.12 ± 0.23 ^d min; Hyperthermia Variation (Δ°C) (mice; 60 mg/kg i.p., n=6 mice): 2.22 ± 0.12 ^c Δ°C and 2.22 ± 0.12 Δ°C; Hyperthermia Variation (Δ°C) (mice; 60 mg/kg i.p., n=6 mice, listed as (±)cis-4,4′-DMAR): 2.22 ± 0.12 Δ°C; Hyperthermia (mice; lower doses 0.1–10 mg/kg i.p., mice): ineffective; Immunoreactivity of HSP27 in the frontal cortex (HSP27; 10 mg/kg alone): ineffective; Immunoreactivity of HSP27 in the frontal cortex (HSP27; 30 and 60 mg/kg, vs control): increased; Immunoreactivity of HSP27 in the frontal cortex (HSP27; 30 and 60 mg/kg, vs control, listed as (±)cis): overexpressed; Immunoreactivity of HSP70 in the frontal cortex (HSP70; 10 mg/kg alone): ineffective; Immunoreactivity of HSP70 in the frontal cortex (HSP70; 30 and 60 mg/kg, vs control): increased; Immunoreactivity of HSP90 in the frontal cortex (HSP90; 10 and 30 mg/kg): reduced

Question: Which “Hyperthermia Variation (Δ°C)” value (mice; [1]) does the source give for Cc1ccc(C2OC(N)=NC2C)cc1 (stereo not drawn) [trans-4,4’-DMAR, 4-methyl-5-(4-methylphenyl)-4,5-dihydrooxazol-2-amine] here?
Answer: Its value is −0.32 ± 0.1 Δ°C.

Question: And the “Hyperthermia Variation (Δ°C)” value (mice; 30 mg/kg i.p., n=6 mice)?
Answer: The value was −0.37 ± 0.13 Δ°C.

Question: What about the “Hyperthermia Variation (Δ°C)” value (mice; 60 mg/kg i.p., n=6 mice) of the same compound?
Answer: The value was −0.35 ± 0.16 Δ°C.

Question: What about the “Immunoreactivity of HSP27 in the frontal cortex” value (HSP27; 30 mg/kg alone) of the same compound?
Answer: Its value is “ineffective”.

Question: What about the “Immunoreactivity of HSP70 in the frontal cortex” value (HSP70; 30 mg/kg alone) of the same compound?
Answer: The value was “ineffective”.

Question: What about the “Expression of HSP90 in the frontal cortex” value (HSP90; 30 mg/kg alone) of the same compound?
Answer: The value was “reduced”.
